What all share (assay type): in vivo
Series [1] concerns Beet Armyworm (Spodoptera exigua). The series is described as follows: Bioassay on Beet Armyworm (BAW), 128-well diet tray assay. The conditions noted are these: Spodoptera exigua, 168 h; 50 μg/cm^2 on artificial diet, second instar larvae, five to seven days; read-out: BAW % Control (or Mortality) rating.
Series [2] relates to Cabbage Looper (Trichoplusia ni). The series can be described thus: Bioassay on Cabbage Looper (CL), 128-well diet tray assay. Conditions: 168 h, 50 μg/cm^2 on artificial diet, second instar larvae, five to seven days, read-out: CL % Control (or Mortality) rating. Put shortly: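 Diet tray, 2nd instar, 1–5 larvae/well; 50 μg/cm^2 compound surface-applied (acetone:water 90:10), dried; 8 wells/treatment; 25° C, 14:10 L:D, 5–7 d; % mortality, mean of 8 wells.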

The subject of series [3] is Yellow Fever Mosquito (Aedes aegypti). The conditions noted are these: about 1 day-old larvae, 3 days, scored on mortality. The procedure: Certain molecules disclosed in this document were tested against YFM using procedures described in the following paragraph. In the reporting of the results, the “GPA & YFM Rating Table” was used (See Table Section).
Master plates containing 400 μg of a molecule dissolved in 100 μL of dimethyl sulfoxide (DMSO) (equivalent to a 4000 ppm solution) are used. A master plate of assembled molecules contains 15 μL per well. To this plate, 135 μL of a 90:10 water/acetone mixture is added to each well. A robot (Biomek® NXP Laboratory Automation Workstation) is programmed to dispense 15 μL aspirations from the master plate into an empty 96-well shallow plate (“daughter” plate). There are 6 reps (“daughter” plates) created per master. The created “daughter” plates are then immediately infested with YFM larvae.
The day before plates are to be treated, mosquito eggs are placed in Millipore water containing liver powder to begin hatching (4 g. into 400 mL). After the “daughter” plates are created using the robot, they are infested with 220 μL of the liver powder/larval mosquito mixture (about 1 day-old larvae). After plates are infested with mosquito larvae, a non-evaporative lid is used to cover the plate to reduce drying. Plates are held at room temperature for 3 days prior to grading. After 3 days, each well is observed and scored based on mortality. The results are indicated in the table entitled “Table ABC: Biological Results” (See Table Section).

On to `CN(NC(=O)c1ccc(/C(F)=C/C(c2cc(Cl)c(Cl)c(Cl)c2)C(F)(F)F)cc1Br)c1ncccn1` (stereo not drawn) [F102, (Z)-2-Bromo-N′-methyl-N′-(pyrimidin-2-yl)-4-(1,4,4,4-tetrafluoro-3-(3,4,5-trichlorophenyl)but-1-en-1-yl)benzohydrazide], for which the mortality at 50 µg/cm2 in series [1] and in series [2] was 50 to 100% each time. The “YFM % Control (or Mortality) rating” value in series [3] is “A (80-100)”.
On to `Cc1csc(N(N)C(=O)c2ccc(/C(F)=C/C(c3cc(Cl)c(Cl)c(Cl)c3)C(F)(F)F)cc2C(F)(F)F)n1` (stereo not drawn) [F109, (Z)—N-(4-Methylthiazol-2-yl)-4-(1,4,4,4-tetrafluoro-3-(3,4,5-trichlorophenyl)but-1-en-1-yl)-2-(trifluoromethyl)benzohydrazide], for which the mortality at 50 µg/cm2 in series [1] and in series [2] was 50 to 100% in each case. In series [3], the “YFM % Control (or Mortality) rating” value is “A (80-100)”.
For the molecule `N#Cc1ccc(NNC(=O)c2ccc(/C(F)=C/C(c3cc(Cl)c(Cl)c(Cl)c3)C(F)(F)F)cc2C(F)(F)F)cc1` (stereo not drawn) [F111, (Z)—N′-(4-Cyanophenyl)-4-(1,4,4,4-tetrafluoro-3-(3,4,5-trichlorophenyl)but-1-en-1-yl)-2-(trifluoromethyl)benzohydrazide], the mortality at 50 µg/cm2 in series [1] and in series [2] was 50 to 100% throughout. In addition, the “YFM % Control (or Mortality) rating” value in series [3] was “A (80-100)”.
As to `O=C(NNc1ncccn1)c1ccc(/C(F)=C/C(c2ccc(Cl)c(Cl)c2)C(F)(F)F)cc1C(F)(F)F` (stereo not drawn) [F117], the mortality at 50 µg/cm2 in series [1] and in series [2] was 50 to 100% in each case. Further, the “YFM % Control (or Mortality) rating” value in series [3] is recorded as “A (80-100)”.
Take `O=C(NN1CCS(=O)(=O)CC1)c1ccc(/C(F)=C/C(c2cc(Cl)c(Cl)c(Cl)c2)C(F)(F)F)cc1C(F)(F)F` (stereo not drawn) [F122, (Z)—N-(1,1-dioxidothiomorpholino)-4-(1,4,4,4-tetrafluoro-3-(3,4,5-trichlorophenyl)but-1-en-1-yl)-2-(trifluoromethyl)benzamide]: the mortality at 50 µg/cm2 in series [1] and in series [2] was 50 to 100% throughout. For the same molecule, in series [3], the “YFM % Control (or Mortality) rating” value was “D (No activity noticed in this bioassay)”.
Turning to `COc1ccc(NNC(=O)c2ccc(/C(F)=C/C(c3cc(Cl)c(Cl)c(Cl)c3)C(F)(F)F)cc2C(F)(F)F)cc1` (stereo not drawn) [F126, (Z)—N′-(4-Methoxyphenyl)-4-(1,4,4,4-tetrafluoro-3-(3,4,5-trichlorophenyl)but-1-en-1-yl)-2-(trifluoromethyl)benzohydrazide], the mortality at 50 µg/cm2 in series [1] and in series [2] was 50 to 100% each time. Besides, the “YFM % Control (or Mortality) rating” value in series [3] was “A (80-100)”.
As to `O=C(NNc1ncccn1)c1ccc(/C(F)=C/C(c2cc(Cl)c(Cl)c(Cl)c2)C(F)(F)F)cc1Br` (stereo not drawn) [F128, (Z)-2-Bromo-N′-(pyrimidin-2-yl)-4-(1,4,4,4-tetrafluoro-3-(3,4,5-trichlorophenyl)but-1-en-1-yl)benzohydrazide], the mortality at 50 µg/cm2 in series [1] and in series [2] was 50 to 100% throughout. For the same molecule, the “YFM % Control (or Mortality) rating” value in series [3] is listed as “A (80-100)”.
Regarding `CCN(NC(=O)c1ccc(/C(F)=C/C(c2cc(Cl)c(Cl)c(Cl)c2)C(F)(F)F)cc1C(F)(F)F)c1ncccn1` (stereo not drawn) [F130, (Z)—N′-Ethyl-N′-(pyrimidin-2-yl)-4-(1,4,4,4-tetrafluoro-3-(3,4,5-trichlorophenyl)but-1-en-1-yl)-2-(trifluoromethyl)benzohydrazide], the mortality at 50 µg/cm2 in series [1] and in series [2] was 50 to 100% in each case. In addition, the “YFM % Control (or Mortality) rating” value in series [3] is “A (80-100)”.
Regarding `O=C(NNc1ccccc1)c1ccc(/C(F)=C/C(c2cc(Cl)c(Cl)c(Cl)c2)C(F)(F)F)cc1C(F)(F)F` (stereo not drawn) [F133, (Z)—N′-Phenyl-4-(1,4,4,4-tetrafluoro-3-(3,4,5-trichlorophenyl)but-1-en-1-yl)-2-(trifluoromethyl)benzohydrazide], the mortality at 50 µg/cm2 in series [1] and in series [2] was 50 to 100% each time. For the same molecule, in series [3], the “YFM % Control (or Mortality) rating” value was “A (80-100)”.
For the molecule `O=C(NNc1cc(F)ccc1F)c1ccc(/C(F)=C/C(c2cc(Cl)c(Cl)c(Cl)c2)C(F)(F)F)cc1C(F)(F)F` (stereo not drawn) [F134, (Z)—N′-(2,5-Difluorophenyl)-4-(1,4,4,4-tetrafluoro-3-(3,4,5-trichlorophenyl)but-1-en-1-yl)-2-(trifluoromethyl)benzohydrazide], the mortality at 50 µg/cm2 in series [1] and in series [2] was 50 to 100% throughout. Besides, the “YFM % Control (or Mortality) rating” value in series [3] is on record as “A (80-100)”.
On to `C#CCN(NC(=O)c1ccc(/C(F)=C/C(c2cc(Cl)c(Cl)c(Cl)c2)C(F)(F)F)cc1C)c1ncccn1` (stereo not drawn) [F148, (Z)-2-Methyl-N′-(prop-2-yn-1-yl)-N′-(pyrimidin-2-yl)-4-(1,4,4,4-tetrafluoro-3-(3,4,5-trichlorophenyl)but-1-en-1-yl)benzohydrazide], for which the mortality at 50 µg/cm2 in series [1] and in series [2] was 50 to 100% each time. In series [3], the “YFM % Control (or Mortality) rating” value was “A (80-100)”.
In the case of `C=CCN(NC(=O)c1ccc(/C(F)=C/C(c2cc(Cl)c(Cl)c(Cl)c2)C(F)(F)F)cc1C(F)(F)F)c1ncccn1` (stereo not drawn) [F152, (Z)—N′-Allyl-N′-(pyrimidin-2-yl)-4-(1,4,4,4-tetrafluoro-3-(3,4,5-trichlorophenyl)but-1-en-1-yl)-2-(trifluoromethyl)benzohydrazide], the mortality at 50 µg/cm2 in series [1] and in series [2] was 50 to 100% each time. Further, the “YFM % Control (or Mortality) rating” value in series [3] is given as “A (80-100)”.
Consider `CN(NC(=O)c1ccc(/C(F)=C/C(c2cc(Cl)c(Cl)c(Cl)c2)C(F)(F)F)cc1C(F)(F)F)c1nccs1` (stereo not drawn) [F158, (Z)—N′-methyl-4-(1,4,4,4-tetrafluoro-3-(3,4,5-trichlorophenyl)but-1-en-1-yl)-N′-(thiazol-2-yl)-2-(trifluoromethyl)benzohydrazide], for which the mortality at 50 µg/cm2 in series [1] and in series [2] was 50 to 100% in each case. Further, the “YFM % Control (or Mortality) rating” value in series [3] is listed as “A (80-100)”.
`O=C(NNc1ncccn1)c1ccc(/C(F)=C/C(c2cc(Cl)c(Br)c(Cl)c2)C(F)(F)F)cc1C(F)(F)F` (stereo not drawn) [F172, (Z)-4-(3-(4-Bromo-3,5-dichlorophenyl)-1,4,4,4-tetrafluorobut-1-en-1-yl)-N′-(pyrimidin-2-yl)-2-(trifluoromethyl)benzohydrazide]: the mortality at 50 µg/cm2 in series [1] and in series [2] was 50 to 100% throughout. Further, the “YFM % Control (or Mortality) rating” value in series [3] is listed as “A (80-100)”.
With `O=C(NNc1ncccn1)c1ccc(/C(F)=C/C(c2cc(Br)cc(Br)c2)C(F)(F)F)cc1C(F)(F)F` (stereo not drawn) [F176, (Z)-4-(3-(3,5-Dibromophenyl)-1,4,4,4-tetrafluorobut-1-en-1-yl)-N′-(pyrimidin-2-yl)-2-(trifluoromethyl)benzohydrazide], the mortality at 50 µg/cm2 in series [1] and in series [2] was 50 to 100% throughout. In series [3], the “YFM % Control (or Mortality) rating” value is listed as “A (80-100)”.
`CNN(CC(=O)NCC(F)(F)F)C(=O)c1ccc(/C(F)=C/C(c2cc(Cl)c(Cl)c(Cl)c2)C(F)(F)F)cc1C(F)(F)F` (stereo not drawn) [F183, (Z)-2-(2-Methyl-1-(4-(1,4,4,4-tetrafluoro-3-(3,4,5-trichlorophenyl)but-1-en-1-yl)-2-(trifluoromethyl)benzoyl)hydrazinyl)-N-(2,2,2-trifluoroethyl)acetamide]: the mortality at 50 µg/cm2 in series [1] and in series [2] was 50 to 100% in each case. Further, in series [3], the “YFM % Control (or Mortality) rating” value is listed as “A (80-100)”.
For the molecule `CN(C)N(CC(=O)NCC(F)(F)F)C(=O)c1ccc(/C(F)=C/C(c2cc(Cl)c(Cl)c(Cl)c2)C(F)(F)F)cc1C(F)(F)F` (stereo not drawn) [F184, (Z)-2-(2,2-dimethyl-1-(4-(1,4,4,4-tetrafluoro-3-(3,4,5-trichlorophenyl)but-1-en-1-yl)-2-(trifluoromethyl)benzoyl)hydrazinyl)-N-(2,2,2-trifluoroethyl)acetamide], the mortality at 50 µg/cm2 in series [1] and in series [2] was 50 to 100% throughout. Moreover, the “YFM % Control (or Mortality) rating” value in series [3] was “A (80-100)”.

A word on the mortality: it is the percentage killed.

The record behind these values is patent US10638756B2, “Molecules having pesticidal utility, and intermediates, compositions, and processes, related thereto” (Dow AgroSciences LLC, priority 2017, dated 2020).
